Earlier results as cited in patent US5354868A, “Process for the preparation of (+)-hydantocidin and analogs thereof” (American Cyanamid Company, priority 1993, dated 1994).

Tests used:
[1] = system: annual and perennial weeds; conditions: compared with glyphosphate and bialaphos
[2] = system: mammals; conditions: in vivo

SMILES: O=C1NC(=O)[C@@]2(N1)O[C@H](CO)[C@@H](O)[C@H]2O [(+)-Hydantocidin, D-ribose-1-spiro-5'-N^1' -β-hydantoin]
- herbicidal activity [1]: herbicidal activity at levels comparable to commercial standards such as glyphosphate and bialaphos
- toxicity to mammals [2]: non-toxic to mammals
